Results: patent publication US8367873B2, “Phenyl-substituted bicyclooctane-1,3-dione derivatives” (Bayer Cropscience AG, priority 2008, dated 2013)

What was measured:
Format in all cases: in vivo
Alopecurus myosuroides [1] = experiment: Herbicidal pre-emergence action; conditions: pre-emergence method, 80 g/ha, greenhouse, visual assessment vs untreated controls
Description: (§1) Seeds of monocotylidonous and dicotylidonous weed and crop plants are placed in sandy loam in wood fibre pots and covered with soil. The test compounds, formulated in the form of wettable powders (WP), are then, as an aqueous suspension with a water application rate of 600 l/ha (converted), with 0.2% of wetting agent added, applied to the surface of the covering soil in different amounts.
(§2) After the treatment, the pots are placed in a greenhouse and kept under good growth conditions for the test plants. The visual assessment of the emergence damage on the test plants is carried out after a trial period of three weeks by comparison with the untreated controls (herbicidal effect in percent: 100% effect=the plants have died, 0% effect=like control plants).

Echinocloa crus-galli [2] = experiment: Herbicidal pre-emergence action; conditions: pre-emergence method, 80 g/ha, greenhouse, visual assessment vs untreated controls
Description: as §1, §2

Lolium multiflorum [3] = experiment: Herbicidal pre-emergence action; conditions: pre-emergence method, 80 g/ha, greenhouse, visual assessment vs untreated controls
Description: as §1, §2

Setaria viridis [4] = experiment: Herbicidal pre-emergence action; conditions: pre-emergence method, 80 g/ha, greenhouse, visual assessment vs untreated controls
Description: as §1, §2

Alopecurus myosuroides [5] = experiment: Herbicidal post-emergence action; conditions: post-emergence method, 80 g/ha
Method in brief: (§3)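 Visual % herbicidal effect vs untreated controls (100% = plants dead, 0% = as control), ~3 wk after spraying. Plants sown in sandy loam, greenhouse-grown, treated at one-leaf stage (2–3 wk post-sowing). WP formulations, 600 l/ha water + 0.2% wetting agent, various doses.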

Echinocloa crus-galli [6] = experiment: Herbicidal post-emergence action; conditions: post-emergence method, 80 g/ha
Method in brief: as §3

Lolium multiflorum [7] = experiment: Herbicidal post-emergence action; conditions: post-emergence method, 80 g/ha
Method in brief: as §3

Setaria viridis [8] = experiment: Herbicidal post-emergence action; conditions: post-emergence method, 80 g/ha
Method in brief: as §3

[9] = test system: monocotylidonous and dicotylidonous weed and crop plants; experiment: Herbicidal pre-emergence action (other test plants); conditions: pre-emergence method, 80 g/ha, greenhouse, visual assessment vs untreated controls
Description: as §1, §2

[10] = test system: monocotylidonous and dicotylidonous weed and crop plants; experiment: Herbicidal post-emergence action (other test plants); conditions: post-emergence method, 80 g/ha
Method in brief: as §3

Row | Compound | herbicidal effect ALOMY (Alopecurus myosuroides [1]) [%] | herbicidal effect ECHCG (Echinocloa crus-galli [2]) [%] | herbicidal effect LOLMU (Lolium multiflorum [3]) [%] | herbicidal effect SETVI (Setaria viridis [4]) [%] | herbicidal effect against ALOMY (Alopecurus myosuroides) (Alopecurus myosuroides [5]) [%] | herbicidal effect against ECHCG (Echinochloa crus-galli) (Echinocloa crus-galli [6]) [%] | herbicidal effect against LOLMU (Lolium multiflorum) (Lolium multiflorum [7]) [%] | herbicidal effect against SETVI (Setaria viridis) (Setaria viridis [8]) [%] | herbicidal effect AVEFA [9] [%] | herbicidal effect against AVEFA (Avena fatua) [10] [%]
1 | CCc1cc(C)cc(CC)c1C1=C(O)[C@H]2CC3(C[C@H]2C1=O)OCC(OCc1ccccc1)CO3 (relative stereo) [I-a-27] | 90 | 100 | 100 | 90 | 100 | 100 | 100 | 90 | 80 | 100
2 | CCc1cc(C)cc(C)c1C1=C(OC(=O)OC(C)C)C2CC3(COC(C)(C)O3)CC2C1=O (mixture of isomers) [I-c-78] | 100 | 100 | 100 | 80 | 100 | 90 | 100 | 80 | 90 | 0
3 | CCc1cc(C)cc(CC)c1C1=C(OC(=O)C(C)(C)CCl)C2CC3(CC2C1=O)OCCCO3 (centres unmarked) [I-b-25] | 90 | 100 | 100 | 60 | 100 | 100 | 100 | 100 | 70 | 100
4 | C=C1CC2C(=O)C(c3c(C)cc(C)cc3CC)=C(OC(=O)C(C)(C)C)C2C1 (centres unmarked) [I-b-73] | 80 | 90 | 100 | 100 | 0 | 100 | 70 | 100 | 80 | 0
5 | Cc1cc(C)c(C2=C(OC(=O)C(C)C)C3CC4(COC(C)(C)O4)CC3C2=O)c(C)c1 (mixture of isomers) [I-b-46] | 90 | 0 | 100 | 0 | 90 | 90 | 100 | 80 | 60 | 40
6 | CCOC(=O)OC1=C(c2c(C)cc(C)cc2OC)C(=O)C2CC3(CC12)OCCCCO3 (racemic) [I-c-66] | 100 | 100 | 100 | 60 | 100 | 100 | 100 | 100 | 70 | 100
7 | CCc1cc(C)cc(CC)c1C1=C(O)C2CC3(COC(CC)O3)CC2C1=O (centres unmarked) [I-a-6] | 100 | 60 | 100 | 60 | 90 | 100 | 100 | 90 | 60 | 70
8 | Cc1cc(C)c(C2=C(OC(=O)C(C)C)C3CC4(CC3C2=O)OCCCCO4)c(C)c1 (centres unmarked) [I-b-41] | 50 | 0 | 100 | 50 | 40 | 100 | 100 | 80 | 40 | 0
9 | CCc1cc(C)cc(CC)c1C1=C(OC(=O)OC)C2CC3(CC2C1=O)OCC(C)(C)CO3 (centres unmarked) [I-c-23] | 100 | 100 | 100 | 100 | 100 | 100 | 100 | 100 | 70 | 100
10 | CCOC(=O)OC1=C(c2c(CC)cc(C)cc2CC)C(=O)C2CC3(CC12)OCCCS3 (mixture of isomers) [I-c-19] | 100 | 50 | 90 | 90 | 100 | 100 | 100 | 100 | 70 | 100
11 | CCc1cc(C)cc(CC)c1C1=C(OC(=O)OC(C)C)C2CC3(CC2C1=O)OCCS3 (mixture of isomers) [I-c-33] | 90 | 90 | 100 | 60 | 80 | 100 | 90 | 80 | 90 | 90
12 | CCc1cc(C)cc(CC)c1C1=C(OC(=O)C(C)(C)C)C2CC3(CC2C1=O)OCCCS3 (mixture of isomers) [I-b-20] | 100 | 80 | 100 | 90 | 0 | 100 | 60 | 0 | 90 | 30
13 | COc1cc(C)cc(C)c1C1=C([O-])C2CC3(CC2C1=O)OCCCO3.[Na+] (centres unmarked) [I-f-4] | 0 | 90 | 100 | 50 | 100 | 100 | 100 | 100 | 50 | 90
14 | C=C1CC2C(=O)C(c3c(CC)cc(C)cc3CC)=C([O-])C2C1.[Na+] (centres unmarked) [I-f-21] | 90 | 100 | 100 | 90 | 80 | 100 | 100 | 100 | 70 | 80
15 | C=C1C[C@@H]2C(O)=C(c3c(C)cc(C)cc3C)C(=O)[C@@H]2C1 (relative stereo) [I-a-36] | 60 | 80 | 90 | 80 | 50 | 90 | 90 | 90 | 70 | 0
16 | CCc1cc(C)cc(CC)c1C1=C(OC(=O)C(C)C)C2CC3(COC(C)(C)O3)CC2C1=O (centres unmarked) [I-b-7] | 100 | 60 | 100 | 70 | 90 | 100 | 100 | 90 | 80 | 100
17 | C=C1CC2C(=O)C(c3c(C)cc(C)cc3OC)=C(OC(=O)C(C)C)C2C1 (centres unmarked) [I-b-62] | 50 | 70 | 70 | 80 | 30 | 100 | 90 | 90 | 40 | 0
